Experimental data as given in PubChem BioAssay (NCI).
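Growth conditions: 96-well plates. Treatment: test compound, 48 hours, 5 concentrations. Analysis: linear interpolation between bracketing concentrations; unreached endpoints set to highest concentration. Abbreviation: GI50, concentration required for 50% inhibition of growth. TGI: total growth inhibition.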

Tests used:
Experiment in all cases: NCI tumour cell line growth inhibition, 48 h
MOLT-4 leukemia = tested on: MOLT-4 leukemia
MCF7 breast = tested on: MCF7 breast
HL-60(TB) leukemia = tested on: HL-60(TB) leukemia
HCT-15 colon = tested on: HCT-15 colon
DU-145 prostate = tested on: DU-145 prostate
SF-295 CNS = tested on: SF-295 CNS
SK-OV-3 ovarian = tested on: SK-OV-3 ovarian
MDA-MB-231 breast = tested on: MDA-MB-231 breast
HCT-116 colon = tested on: HCT-116 colon
HCC-2998 colon = tested on: HCC-2998 colon
SF-268 CNS = tested on: SF-268 CNS
CCRF-CEM leukemia = tested on: CCRF-CEM leukemia
ACHN renal = tested on: ACHN renal
NCI-H23 lung = tested on: NCI-H23 lung
SN12C renal = tested on: SN12C renal
SF-539 CNS = tested on: SF-539 CNS
SK-MEL-2 melanoma = tested on: SK-MEL-2 melanoma
SW-620 colon = tested on: SW-620 colon
KM12 colon = tested on: KM12 colon
RXF 393 renal = tested on: RXF 393 renal
U251 CNS = tested on: U251 CNS
786-0 renal = tested on: 786-0 renal
HOP-62 NSCLC = tested on: HOP-62 NSCLC
SR leukemia = tested on: SR leukemia
OVCAR-4 ovarian = tested on: OVCAR-4 ovarian
COLO 205 colon = tested on: COLO 205 colon
OVCAR-8 ovarian = tested on: OVCAR-8 ovarian
HS 578T breast = tested on: HS 578T breast
SNB-19 CNS = tested on: SNB-19 CNS
PC-3 prostate = tested on: PC-3 prostate
K-562 leukemia = tested on: K-562 leukemia
OVCAR-5 ovarian = tested on: OVCAR-5 ovarian
SNB-75 CNS = tested on: SNB-75 CNS
UACC-62 melanoma = tested on: UACC-62 melanoma
CAKI-1 renal = tested on: CAKI-1 renal
RPMI-8226 leukemia = tested on: RPMI-8226 leukemia
IGROV1 ovarian = tested on: IGROV1 ovarian
HT29 colon = tested on: HT29 colon
UO-31 renal = tested on: UO-31 renal
MALME-3M melanoma = tested on: MALME-3M melanoma
NCI/ADR-RES ovarian = tested on: NCI/ADR-RES ovarian
EKVX NSCLC = tested on: EKVX NSCLC
LOX IMVI melanoma = tested on: LOX IMVI melanoma
NCI-H522 lung = tested on: NCI-H522 lung
OVCAR-3 ovarian = tested on: OVCAR-3 ovarian
MDA-MB-435 = tested on: MDA-MB-435
NCI-H460 lung = tested on: NCI-H460 lung
SK-MEL-28 melanoma = tested on: SK-MEL-28 melanoma
TK-10 renal = tested on: TK-10 renal
HOP-92 NSCLC = tested on: HOP-92 NSCLC
A549 NSCLC = tested on: A549 NSCLC
A498 renal = tested on: A498 renal
M14 melanoma = tested on: M14 melanoma
SK-MEL-5 melanoma = tested on: SK-MEL-5 melanoma
T-47D breast = tested on: T-47D breast
NCI-H226 lung = tested on: NCI-H226 lung
UACC-257 melanoma = tested on: UACC-257 melanoma
BT-549 breast = tested on: BT-549 breast

## CCN(CC)CCCC(C)Nc1cc(-c2cccc(OC(F)(F)F)c2)nc2ccc(N3CCCC3)cc12 (stereo unspecified)
MOLT-4 leukemia
  GI50: 306 nM
  TGI: > 100000 nM
MCF7 breast
  GI50: 35.3 nM
  TGI: 22500 nM
HL-60(TB) leukemia
  GI50: 52.8 nM
  TGI: 2060 nM
HCT-15 colon
  GI50: 41.5 nM
  TGI: 12400 nM
DU-145 prostate
  GI50: 78.2 nM
  TGI: 13600 nM
SF-295 CNS
  GI50: 40.4 nM
  TGI: 11900 nM
SK-OV-3 ovarian
  GI50: 77.9 nM
  TGI: 98700 nM
MDA-MB-231 breast
  GI50: 195 nM
  TGI: 14900 nM
HCT-116 colon
  GI50: 37.1 nM
  TGI: 13700 nM
HCC-2998 colon
  GI50: 224 nM
  TGI: 2980 nM
SF-268 CNS
  GI50: 196 nM
  TGI: 19800 nM
CCRF-CEM leukemia
  GI50: 56.4 nM
  TGI: > 100000 nM
ACHN renal
  GI50: 74.4 nM
  TGI: 39000 nM
NCI-H23 lung
  GI50: 161 nM
  TGI: > 64000 nM
SN12C renal
  GI50: 124 nM
  TGI: 16100 nM
SF-539 CNS
  GI50: 38.2 nM
  TGI: 508 nM
SK-MEL-2 melanoma
  GI50: 598 nM
  TGI: 27000 nM
SW-620 colon
  GI50: 43.3 nM
  TGI: > 100000 nM
KM12 colon
  GI50: 43.7 nM
  TGI: 11400 nM
RXF 393 renal
  GI50: 35.7 nM
  TGI: 89100 nM
U251 CNS
  GI50: 47.3 nM
  TGI: 21900 nM
786-0 renal
  GI50: 158 nM
  TGI: 26100 nM
HOP-62 NSCLC
  GI50: 80.6 nM
  TGI: > 48200 nM
SR leukemia
  GI50: 36.5 nM
  TGI: > 100000 nM
OVCAR-4 ovarian
  GI50: 483 nM
  TGI: > 100000 nM
COLO 205 colon
  GI50: 213 nM
  TGI: 1510 nM
OVCAR-8 ovarian
  GI50: 62.6 nM
  TGI: 34300 nM
HS 578T breast
  GI50: 33.7 nM
  TGI: 3220 nM
SNB-19 CNS
  GI50: 118 nM
  TGI: > 100000 nM
PC-3 prostate
  GI50: 280 nM
  TGI: > 49500 nM
K-562 leukemia
  GI50: 39.1 nM
  TGI: > 100000 nM
OVCAR-5 ovarian
  GI50: 348 nM
  TGI: > 100000 nM
SNB-75 CNS
  GI50: 36.1 nM
  TGI: 59400 nM
UACC-62 melanoma
  GI50: 48.4 nM
  TGI: 20900 nM
CAKI-1 renal
  GI50: 42.2 nM
  TGI: 31500 nM
RPMI-8226 leukemia
  GI50: 78.8 nM
  TGI: 13100 nM
IGROV1 ovarian
  GI50: 94.1 nM
  TGI: > 100000 nM
HT29 colon
  GI50: 39.4 nM
  TGI: 11200 nM
UO-31 renal
  GI50: 69.9 nM
  TGI: 44300 nM
MALME-3M melanoma
  GI50: 67.9 nM
  TGI: 32600 nM
NCI/ADR-RES ovarian
  GI50: 45.3 nM
  TGI: 6270 nM
EKVX NSCLC
  GI50: 69 nM
  TGI: > 100000 nM
LOX IMVI melanoma
  GI50: 63.8 nM
  TGI: 14600 nM
NCI-H522 lung
  GI50: 24.9 nM
  TGI: 500 nM
OVCAR-3 ovarian
  GI50: 30.5 nM
  TGI: 382 nM
MDA-MB-435
  GI50: 22.3 nM
  TGI: 51.9 nM
NCI-H460 lung
  GI50: 37.7 nM
  TGI: 3660 nM
SK-MEL-28 melanoma
  GI50: 5850 nM
  TGI: 58400 nM
TK-10 renal
  GI50: 8820 nM
  TGI: > 93100 nM
HOP-92 NSCLC
  GI50: 582 nM
  TGI: 13400 nM
A549 NSCLC
  GI50: 67.7 nM
  TGI: > 100000 nM
A498 renal
  GI50: 30.1 nM
  TGI: 3030 nM
M14 melanoma
  GI50: 36.1 nM
  TGI: 1160 nM
SK-MEL-5 melanoma
  GI50: 126 nM
  TGI: 589 nM
T-47D breast
  GI50: 54.2 nM
  TGI: > 100000 nM
NCI-H226 lung
  GI50: 189 nM
  TGI: 9570 nM
UACC-257 melanoma
  GI50: 970 nM
  TGI: 47700 nM
BT-549 breast
  GI50: 201 nM
  TGI: 3390 nM
